In experiment [1] the test system is asymmetric di-methyl PABP1 in RKO cells. Description: In Cell Western (ICW) for asymmetric di-methyl PABP1 and DNA content in RKO cells. The format is cell-based. As to conditions: Homo sapiens, RKO. An excerpt: RKO adherent cells were purchased from ATCC (American Type Culture Collection), Manassas, Va., USA. DMEM/Glutamax medium, penicillin-streptomycin, heat inactivated fetal bovine serum, 0.05% trypsin and D-PBS were purchased from Life Technologies, Grand Island, N.Y., USA. Odyssey blocking buffer, 800CW goat anti-rabbit IgG (H+L) antibody, and Licor Odyssey infrared scanner were purchased from Licor Biosciences, Lincoln, Nebr., USA. Mono-methyl arginine antibody was purchased from Cell Signaling Technology, Danvers, Mass., USA. Methanol was purchased from VWR, Franklin, Mass., USA. 10% Tween 20 was purchased from KPL, Inc., Gaithersburg, Md., USA. […] was purchased from Biostatus Limited, Leicestershire, UK. RKO adherent cells were maintained in growth medium (DMEM/Glutamax medium supplemented with 10% v/v heat inactivated fetal bovine serum and 100 units/mL penicillin-streptomycin) and cultured at 37° C. under 5% CO2. Cell Treatment, in Cell Western (ICW) for Detection of Asymmetric Di-Methyl PABP1 and DNA Content. RKO cells were seeded in assay medium at a concentration of 30,000 cells per mL to a poly-D-lysine coated 384 well culture plate (BD Biosciences 356697) with 50 μL per well. Compound (100 nL) from a 96-well source plate was added directly to 384 well cell plate. Plates were incubated at 37° C., 5% CO2 for 48 hours. After two days of incubation, plates were brought to room temperature outside of the incubator for ten minutes and blotted on paper towels to remove cell media. Cells were fixed for 20 minutes at room temperature by adding 50 μl of 8% PFA followed by aspiration of supernatant with the Biotek EL406 plate washer. Cells were then permeabilized by addition of 50 μL of ice cold 100% methanol directly to each well and incubated for 30 min at room temperature. After 30 min, plates were transferred to a Biotek EL406 plate washer and washed 2 times with 100 μL per well of wash buffer (1×PBS). Next 60 μL per well of Odyssey blocking buffer (Odyssey Buffer with 0.1% Tween 20 (v/v)) were added to each plate and incubated 1 hour at room temperature. Blocking buffer was removed and 20 μL per well of primary antibody was added (asymmetric-methyl PABP1) diluted 1:400 in Odyssey buffer with 0.1% Tween 20 (v/v)) and plates were incubated overnight (16 hours) at 4° C. Plates were washed 5 times with 100 μL per well of wash buffer. Next 20 μL per well of secondary antibody was added (1:800 800CW goat anti-rabbit IgG (H+L) antibody, 1:2000 DRAQS in Odyssey buffer with 0.1% Tween 20 (v/v)) and incubated for 1 hour at room temperature. The plates were washed 5 times with 100 μL per well wash buffer then 2 times with 100 μL per well of water. Plates were allowed to dry at room temperature then imaged on the Licor Odyssey machine which measures integrated intensity at 700 nm and 800 nm wavelengths. Both 700 and 800 channels were scanned. Calculations: First, the ratio for each well was determined by: Each plate included fourteen control wells of DMSO only treatment (minimum inhibition) as well as fourteen control wells for maximum inhibition treated with 20 μM of a reference compound. The average of the ratio values for each control type was calculated and used to determine the percent activation for each test well in the plate. Reference compound was serially diluted three-fold in DMSO for a total of nine test concentrations, beginning at 20 μM. Percent inhibition was determined and IC50 curves were generated using triplicate wells per concentration of compound.

Another experiment deals with T1, Human CARM1 (PRMT4) (Homo sapiens, UniProt Q86X55).
T1 construct: Flag-CARM1-His; made in house; host or cells: HEK 293F cells (BacMam baculovirus, pFastBacMam)
T1 sequence (Q86X55 2-585 isoform Q86X55-1): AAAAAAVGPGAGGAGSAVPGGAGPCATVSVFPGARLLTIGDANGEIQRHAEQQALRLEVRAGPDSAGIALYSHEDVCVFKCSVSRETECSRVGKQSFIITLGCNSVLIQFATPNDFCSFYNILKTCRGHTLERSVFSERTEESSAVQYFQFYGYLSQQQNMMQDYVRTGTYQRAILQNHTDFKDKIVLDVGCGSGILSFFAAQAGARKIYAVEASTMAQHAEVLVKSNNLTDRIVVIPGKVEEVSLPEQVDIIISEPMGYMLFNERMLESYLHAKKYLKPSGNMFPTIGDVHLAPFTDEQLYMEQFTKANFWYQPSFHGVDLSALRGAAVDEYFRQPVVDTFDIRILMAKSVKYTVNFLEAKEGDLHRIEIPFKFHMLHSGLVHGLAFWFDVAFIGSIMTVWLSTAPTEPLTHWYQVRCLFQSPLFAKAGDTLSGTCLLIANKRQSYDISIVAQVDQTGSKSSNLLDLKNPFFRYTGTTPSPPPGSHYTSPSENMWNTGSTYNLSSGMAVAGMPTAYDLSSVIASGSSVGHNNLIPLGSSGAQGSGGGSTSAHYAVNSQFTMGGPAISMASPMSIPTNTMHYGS
Description: CARM1 biochemical assay (3H-SAM Flashplate, peptide substrate). As to conditions: read-out: CARM1_ IC50. An excerpt: S-adenosylmethionine (SAM), S-adenosylhomocysteine (SAH), bicine, Tween20, dimethylsulfoxide (DMSO), bovine skin gelatin (BSG), sodium butyrate and Tris(2-carboxyethyl)phosphine hydrochloride solution (TCEP) were purchased from Sigma-Aldrich at the highest level of purity possible. ^3H-SAM was purchase from American Radiolabeled Chemicals with a specific activity of 80 Ci/mmol. 384-well streptavidin Flashplates were purchased from PerkinElmer.
Peptide representative of human histone H3 residues 16-30 was synthesized with an N-terminal linker-affinity tag motif and a C-terminal amide cap by 21st Century Biochemicals. The peptide was purified by high-performance liquid chromatography (HPLC) to greater than 95% purity and confirmed by liquid chromatography mass spectrometry (LC-MS). The sequence was Biot-Ahx-[…]-amide and contained a monomethylated arginine at position 26 (SEQ ID NO.: 14).
Human CARM1 (PRMT4) (NM_199141.1) transcript clone was amplified from an HEK 293 cDNA library, incorporating a flanking 5′ sequence encoding a FLAG tag ([…]) (SEQ ID NO.: 6) fused directly to Ala 2 of CARM1 and 3′ sequence encoding a hexa His sequence ([…]) (SEQ ID NO.: 15) fused directly to Ser 608. The gene sequence encoding isoform1 containing a deletion of amino acids 539-561 was amplified subsequently and subcloned into pFastBacMam (Viva Biotech).
Recombinant baculovirus were generated according to Bac-to-Bac kit instructions (Life Technologies). […] Infections were carried out at 37° C. for 48 hours, harvested by centrifugation, and stored at −80° C. for purification.
Column was washed with 500 mM NaCl in buffer A and Flag-CARM1-His was eluted with 200 ug/ml FLAG peptide in buffer A. Pooled fractions were dialyzed in 20 mM Tris, 150 mM NaCl, 5% glycerol and 1 mM DTT, pH 7.8. The purity of recovered protein was 94.
General Procedure for CARM1 Enzyme Assays on Peptide Substrates.
The assays were all performed in a buffer consisting of 20 mM Bicine (pH=7.6), 1 mM TCEP, 0.005% BSG, and 0.002% Tween 20, prepared on the day of use. Compounds in 100% DMSO (1 ul) were spotted into a polypropylene 384-well V-bottom plates (Greiner) using a Platemate Plus outfitted with a 384-channel head (Thermo Scientific). DMSO (1 ul) was added to Columns 11, 12, 23, 24, rows A-H for the maximum signal control and 1 ul of SAH, a known product and inhibitor of CARM1, was added to columns 11, 12, 23, 24, rows I-P for the minimum signal control. A cocktail (40 ul) containing the CARM1 enzyme was added by Multidrop Combi (Thermo-Fisher). The compounds were allowed to incubate with CARM1 for 30 min at room temperature, then a cocktail (10 ul) containing ^3H-SAM and peptide was added to initiate the reaction (final volume=51 ul). The final concentrations of the components were as follows: CARM1 was 0.25 nM, ^3H-SAM was 30 nM, peptide was 250 nM, SAH in the minimum signal control wells was 1 mM, and the DMSO concentration was 2%. The assays were stopped by the addition of non-radiolabeled SAM (10 ul) to a final concentration of 300 uM, which dilutes the ^3H-SAM to a level where its incorporation into the peptide substrate is no longer detectable. 50 ul of the reaction in the 384-well polypropylene plate was then transferred to a 384-well Flashplate and the biotinylated peptides were allowed to bind to the streptavidin surface for at least 1 hour before being washed once with 0.1% Tween20 in a Biotek ELx405 plate washer. The plates were then read in a PerkinElmer TopCount plate reader to measure the quantity of ^3H-labeled peptide bound to the Flashplate surface, measured as disintegrations per minute (dpm) or alternatively, referred to as counts per minute (cpm).
Where dpm=disintegrations per minute, cmpd=signal in assay well, and min and max are the respective minimum and maximum signal controls.
Where top and bottom are the normally allowed to float, but may be fixed at 100 or 0 respectively in a 3-parameter fit. […]

The values that follow come from patent publication US20170280720A1, “ARGININE […] INHIBITORS AND USES THEREOF” (EPIZYME, INC., priority 2014, published 2017).

For the compound `CN(CCN)Cc1cccc(-c2nc(NC3CCOCC3)c3cnn(C4CC4)c3n2)c1` [Compound 174], the IC50 (as a rule, the concentration at which inhibition is half-maximal) in experiment [1] (In Cell Western) was 5040 nM; on Human CARM1 (PRMT4) it was 6.11 nM.
The corresponding values for `CNCCN(C)Cc1cccc(-c2cc(-c3ccco3)c3cnn(C(C)C)c3n2)c1` [Compound 209] are 20000 nM and 21.7 nM.
In the case of `CC(C)n1ncc2c(C(=O)NCC(F)(F)F)cc(-c3cccc(CN(C)CCN)c3)nc21` [Compound 222], the IC50 came out at 3820 nM in experiment [1] (In Cell Western) and 34.4 nM at Human CARM1 (PRMT4).
Take `CNCCN(C)Cc1cccc(-c2cc(C(O)c3ccncc3)c3cnn(C(C)C)c3n2)c1` (centres unmarked) [Compound 307]: the figures for the IC50 (in experiment [1] (In Cell Western); on Human CARM1 (PRMT4)) were 20000 nM and 250 nM, respectively.
On the same counts, the results for `CNCCN(C)Cc1cccc(-c2cc(-c3ccc(O)cc3)c3cnn(C(C)C)c3n2)c1` [Compound 247] are 20000 nM and 54.7 nM.
The corresponding values for `C=CCn1ncc2c(C(=O)NCC3CCOCC3)cc(-c3cccc(CN(C)CCNC)c3)nc21` [Compound 286] are 7150 nM and 148 nM.
In the case of `CNCCN(C)Cc1cccc(-c2cc(C(=O)NCc3cn(C)cn3)c3cnn(C(C)C)c3n2)c1` [Compound 223], the IC50 came to 3470 nM in experiment [1] (In Cell Western) and 35.3 nM at Human CARM1 (PRMT4).
As to `CNCCN(C)Cc1cccc(-c2cc(C(=O)NCc3cnc[nH]3)c3cnn(C(C)C)c3n2)c1` [Compound 231], the IC50 in experiment [1] (In Cell Western) was determined as 20000 nM; at Human CARM1 (PRMT4) it was 42.2 nM.
`CC(C)n1ncc2c(C(=O)NCc3cnc4ccccn34)cc(-c3cccc(CN(C)CCN)c3)nc21` [Compound 194]: the half-inhibitory concentration (IC50) is 1200 nM in experiment [1] (In Cell Western) and 13.6 nM at Human CARM1 (PRMT4).
`CNCCN(C)Cc1cccc(-c2cc(C(=O)NCc3ccc(F)cc3)c3cnn(C(C)C)c3n2)c1` [Compound 276]: the IC50 in experiment [1] (In Cell Western) came out at 20000 nM; at Human CARM1 (PRMT4), 94.1 nM.
On the same counts, the results for `CC(C)n1ncc2c(C(=O)N3CCOCC3)cc(-c3cccc(CN(C)CCN)c3)nc21` [Compound 279] are 18700 nM and 113 nM.
Consider `Cc1cc(C)c(CNC(=O)c2cc(-c3cc(CNCCN)ccc3C)cc3c2cnn3C(C)C)c(=O)[nH]1` [Compound 388], for which the results for the IC50 (in experiment [1] (48 h); on Human CARM1 (PRMT4)) were at least 20000 nM and 149 nM, respectively.
For the compound `CNCCN(C)Cc1cccc(-c2cc(C(=O)NCc3cccc(F)c3)c3cnn(C(C)C)c3n2)c1` [Compound 259], the IC50 in experiment [1] (In Cell Western) amounted to 20000 nM; on Human CARM1 (PRMT4), 67 nM.
The corresponding values for `CNCCN(C)Cc1cccc(-c2cc(C(=O)NC3CC3)c3cnn(C(C)C)c3n2)c1` [Compound 228] are 1910 nM and 41.2 nM.
In the case of `CC(C)n1ncc2c(C(=O)NCc3ccn(C)n3)cc(-c3cccc(CN(C)CCN)c3)nc21` [Compound 220], the results for the half-inhibitory concentration (IC50) (in experiment [1] (In Cell Western); at Human CARM1 (PRMT4)) were 1240 nM and 32.5 nM, respectively.
The corresponding values for `CC(C)n1ncc2c(C(=O)NCc3nccs3)cc(-c3cccc(CN(C)CCN)c3)nc21` [Compound 189] are 1890 nM and 12.4 nM.
Regarding `CNCCN(C)Cc1cccc(-c2cc(CO)c3cnn(C(C)C)c3n2)c1` [Compound 290], the IC50 in experiment [1] (In Cell Western) was 20000 nM; at Human CARM1 (PRMT4), 167 nM.
For the compound `CNCCN(C)Cc1cccc(-c2cc(C(=O)NCc3cnc4ccccn34)c3cnn(C(C)C)c3n2)c1` [Compound 176], the IC50 in experiment [1] (In Cell Western) was 865 nM; at Human CARM1 (PRMT4), 7.29 nM.
The corresponding values for `CNCCN(C)Cc1cccc(-c2cc(C(=O)NCc3cncn3C)c3cnn(C(C)C)c3n2)c1` [Compound 280] are 9490 nM and 113 nM.
On to `CNCCN(C)Cc1cccc(-c2cc(C(=O)NC3CCOC3)c3cnn(C(C)C)c3n2)c1` (centres unmarked) [Compound 234], for which the IC50 in experiment [1] (In Cell Western) was found to be 2760 nM; at Human CARM1 (PRMT4) it was 43.3 nM.
The corresponding values for `CNC(=O)c1cc(-c2cccc(CNCCN)c2)nc2c1cnn2C(C)C` [Compound 311] are 14200 nM and 293 nM.
The corresponding values for `CNCCN(C)Cc1cccc(-c2cc(C(=O)N3CCN(C)C(=O)C3)c3cnn(C(C)C)c3n2)c1` [Compound 296] are 15700 nM and 183 nM.
